Measured values: patent US12419307B2, “Mixtures comprising indazole pesticides” (FMC Corporation, priority 2019, dated 2025)
Like-named read-outs stand apart in the source and are kept apart here.

What was measured:
Assay type in all cases: in vivo
[1] = test system: cotton melon aphid (Aphis gossypii Glover); assay: Test D: cotton melon aphid control on okra plants, insect mortality after 6 days; conditions: Aphis gossypii, read-out: % Mortality (obs)
In short: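 Okra plants (6–7 days old) pre-infested with 30–40 aphids by cut-leaf transfer were sprayed, three replicates, then held 6 days at 19-21° C and 50-70% RH before mortality scoring. Mixture enhancement was judged against Colby-expected % mortality.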

[2] = test system: Potato Leafhopper (Empoasca fabae Harris); assay: Test C: Potato Leafhopper control on bean plants, insect mortality after 6 days; conditions: read-out: % Mortality (obs)
In short: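 Sprays (3 replicates) were applied to 5- to 6-day-old Longio bean plants with one primary leaf excised, which were dried 1 h and infested with 5 adult leafhoppers (18–21 days old). Mortality was scored after 6 days at 19-21° C and 50-70% RH. Mixture enhancement was judged against expected mortality by Colby's equation.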

[3] = test system: silverleaf whitefly (Bemisia argentifolii Bellows and Perring); assay: Test A: silverleaf whitefly control on cotton or soybean plants, spray, insect mortality after 13 days; conditions: Bemisia argentifolii, applied alone, read-out: % Mortality (obs)
In short: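 Cotton (12–14-day) or soybean (5–7-day) plants carrying whitefly eggs were sprayed with compound in 10% acetone/water with non-ionic surfactant. Plants were held 13 days at 28°C and 50–70% RH; mortality was averaged over three replicates. Mixture enhancement was judged against Colby-expected values.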

[4] = test system: diamondback moth (Plutella xylostella L.); assay: Test E: diamondback moth control on mustard plants, contact and/or systemic, plant damage rating after 6 days
Method: The pest control protection afforded by the mixtures or compositions is not limited, however, to these species. The analysis of enhanced activity between the mixtures or compositions was determined using Colby's equation. The average % mortality data for the test compounds alone were inserted into the Colby's equation. If the observed (obs) average % mortality was higher than “p”, the expected (exp) % mortality, the mixture or composition had enhanced effects. If the observed average % mortality was equal to or lower than the expected mortality, the mixture or composition either had no enhanced effect. For bioassays where insect feeding damage was evaluated, enhanced activity is identified when the observed plant damage is less than the expected plant damage rating; ratings ranged between 0 (no damage) and 10 (dead plant) and each value was converted to a % plant protection. 100−(Obs Plant Damage*10)
For evaluating control of diamondback moth (Plutella xylostella L.) through contact and/or systemic means, each test unit consisted of a small open container with a 10- to 12-day-old mustard plant inside. Test compounds were formulated and sprayed with 3 replications as described for Test A. After spraying, the test units were allowed to dry for 1 hour before they were infested with 30-50 neonate larvae. A black, screened cap was placed on the top of each container. The test units were held for 6 days in a growth chamber at 24-25° C. and 70% relative humidity. Each test unit was then visually assessed for plant damage and rated 0-10, where 0=undamaged and 10=plant is dead; the results are listed in Tables 6a-b.

Q: C[S+]([O-])CC(C)(C)NC(=O)c1ccc(F)c2nn(-c3cccnc3)cc12 (stereo not drawn) [Cpd 2, N-[1,1-dimethyl-2-(methylsulfinyl)ethyl]-7-fluoro-2-(3-pyridinyl)-2H-indazole-4-carboxamide] was tested. Which mortality at 0.05 ppm ([1]; 5 h, Table 5h) did it give?
A: The mortality at 0.05 ppm was 43.9%.

Q: And the mortality at 0.18 ppm ([1]; 5 h, Table 5h)?
A: Its mortality at 0.18 ppm is 57.5%.

Q: And the mortality at 0.05 ppm ([1]; 120 h, Table 5d)?
A: Its mortality at 0.05 ppm is 40.1%.

Q: What about the mortality at 0.18 ppm ([1]; 120 h, Table 5d) of the same molecule?
A: The mortality at 0.18 ppm was 31.4%.

Q: And the mortality at 0.05 ppm ([1]; Table 5a)?
A: The mortality at 0.05 ppm was 40.1%.

Q: What about the mortality at 0.18 ppm ([1]; Table 5a) of the same molecule?
A: Its mortality at 0.18 ppm is 31.4%.

Q: What about the mortality at 0.05 ppm ([1]; Table 5b) of the same molecule?
A: The mortality at 0.05 ppm was 40.1%.

Q: And the mortality at 0.18 ppm ([1]; Table 5b)?
A: Its mortality at 0.18 ppm is 31.4%.

Q: And the mortality at 0.05 ppm ([1]; Table 5c)?
A: Its mortality at 0.05 ppm is 0%.

Q: And the mortality at 0.18 ppm ([1]; Table 5c)?
A: The mortality at 0.18 ppm was 80%.

Q: And the mortality at 0.05 ppm ([1]; Table 5e)?
A: Its mortality at 0.05 ppm is 16.3%.

Q: And the mortality at 0.18 ppm ([1]; Table 5e)?
A: The mortality at 0.18 ppm was 37%.

Q: And the mortality at 0.05 ppm ([1]; Table 5f)?
A: The mortality at 0.05 ppm was 17.1%.

Q: What about the mortality at 0.18 ppm ([1]; Table 5f) of the same molecule?
A: Its mortality at 0.18 ppm is 37.2%.

Q: And the mortality at 0.05 ppm ([1]; Table 5g)?
A: Its mortality at 0.05 ppm is 23.4%.

Q: And the mortality at 0.18 ppm ([1]; Table 5g)?
A: Its mortality at 0.18 ppm is 38.3%.

Q: And the mortality at 50 ppm ([2]; Table 4a)?
A: Its mortality at 50 ppm is 46.7%.

Q: And the mortality at 250 ppm ([2]; Table 4a)?
A: Its mortality at 250 ppm is 86.7%.

Q: What about the mortality at 50 ppm ([2]; Table 4b) of the same molecule?
A: Its mortality at 50 ppm is 6.7%.

Q: And the mortality at 250 ppm ([2]; Table 4b)?
A: Its mortality at 250 ppm is 85.7%.

Q: What about the mortality at 50 ppm ([2]; Table 4c) of the same molecule?
A: Its mortality at 50 ppm is 20%.

Q: And the mortality at 250 ppm ([2]; Table 4c)?
A: Its mortality at 250 ppm is 73.3%.

Q: What about the mortality at 50 ppm ([3]; 2 h, Table 2h) of the same molecule?
A: Its mortality at 50 ppm is 0%.

Q: And the mortality at 250 ppm ([3]; 2 h, Table 2h)?
A: Its mortality at 250 ppm is 2.9%.

Q: And the mortality at 50 ppm ([3]; 48 h, Table 2d)?
A: The mortality at 50 ppm was 7.5%.

Q: And the mortality at 250 ppm ([3]; 48 h, Table 2d)?
A: The mortality at 250 ppm was 28%.

Q: And the mortality at 50 ppm ([3]; Table 2a)?
A: The mortality at 50 ppm was 10.9%.

Q: And the mortality at 250 ppm ([3]; Table 2a)?
A: The mortality at 250 ppm was 74.5%.

Q: And the mortality at 50 ppm ([3]; Table 2b)?
A: The mortality at 50 ppm was 80%.

Q: What about the mortality at 250 ppm ([3]; Table 2b) of the same molecule?
A: The mortality at 250 ppm was 53.3%.

Q: What about the mortality at 50 ppm ([3]; Table 2c) of the same molecule?
A: The mortality at 50 ppm was 11.8%.

Q: What about the mortality at 250 ppm ([3]; Table 2c) of the same molecule?
A: The mortality at 250 ppm was 75.4%.

Q: And the mortality at 50 ppm ([3]; Table 2e)?
A: The mortality at 50 ppm was 17.8%.

Q: What about the mortality at 250 ppm ([3]; Table 2e) of the same molecule?
A: The mortality at 250 ppm was 90.2%.

Q: And the mortality at 50 ppm ([3]; Table 2f)?
A: Its mortality at 50 ppm is 15.7%.

Q: And the mortality at 250 ppm ([3]; Table 2f)?
A: The mortality at 250 ppm was 90.6%.

Q: And the mortality at 50 ppm ([3]; Table 2g)?
A: The mortality at 50 ppm was 31.1%.

Q: What about the mortality at 250 ppm ([3]; Table 2g) of the same molecule?
A: Its mortality at 250 ppm is 91.7%.

Q: What about the “Plant Protection (obs)” value ([4]; Table 6a, 50 ppm) of the same molecule?
A: The value was 0.0.

Q: And the “Plant Protection (obs)” value ([4]; Table 6a, 250 ppm)?
A: Its value is 0.0.

Q: And the “Plant Protection (obs)” value ([4]; Table 6b, 50 ppm)?
A: Its value is 0.0.

Q: And the “Plant Protection (obs)” value ([4]; Table 6b, 250 ppm)?
A: The value was 0.0.

Q: For CSCC(C)(C)NC(=O)c1ccc(F)c2nn(-c3cccnc3)cc12 [Cpd 1, N-[1,1-dimethyl-2-(methylthio)ethyl]-7-fluoro-2-(3-pyridinyl)-2H-indazole-4-carboxamide], which mortality at 0.08 ppm ([1]; 5 h, Table 5h) is on record?
A: Its mortality at 0.08 ppm is 37.3%.

Q: What about the mortality at 0.12 ppm ([1]; 5 h, Table 5h) of the same molecule?
A: The mortality at 0.12 ppm was 50.5%.

Q: And the mortality at 0.08 ppm ([1]; 120 h, Table 5d)?
A: The mortality at 0.08 ppm was 23.8%.

Q: And the mortality at 0.12 ppm ([1]; 120 h, Table 5d)?
A: Its mortality at 0.12 ppm is 49.8%.

Q: And the mortality at 0.08 ppm ([1]; Table 5a)?
A: Its mortality at 0.08 ppm is 23.8%.

Q: And the mortality at 0.12 ppm ([1]; Table 5a)?
A: The mortality at 0.12 ppm was 49.8%.

Q: And the mortality at 0.08 ppm ([1]; Table 5b)?
A: The mortality at 0.08 ppm was 23.8%.

Q: And the mortality at 0.12 ppm ([1]; Table 5b)?
A: Its mortality at 0.12 ppm is 49.8%.

Q: And the mortality at 0.08 ppm ([1]; Table 5c)?
A: The mortality at 0.08 ppm was 100%.

Q: What about the mortality at 0.12 ppm ([1]; Table 5c) of the same molecule?
A: Its mortality at 0.12 ppm is 26.7%.

Q: What about the mortality at 0.08 ppm ([1]; Table 5e) of the same molecule?
A: The mortality at 0.08 ppm was 21.3%.

Q: And the mortality at 0.12 ppm ([1]; Table 5e)?
A: Its mortality at 0.12 ppm is 35.3%.

Q: What about the mortality at 0.08 ppm ([1]; Table 5f) of the same molecule?
A: Its mortality at 0.08 ppm is 20.8%.

Q: And the mortality at 0.12 ppm ([1]; Table 5f)?
A: The mortality at 0.12 ppm was 39.4%.

Q: And the mortality at 0.08 ppm ([1]; Table 5g)?
A: The mortality at 0.08 ppm was 29.1%.

Q: What about the mortality at 0.12 ppm ([1]; Table 5g) of the same molecule?
A: Its mortality at 0.12 ppm is 35.9%.

Q: And the mortality at 50 ppm ([2]; Table 4a)?
A: The mortality at 50 ppm was 60%.

Q: What about the mortality at 250 ppm ([2]; Table 4a) of the same molecule?
A: Its mortality at 250 ppm is 35.7%.

Q: What about the mortality at 50 ppm ([2]; Table 4b) of the same molecule?
A: The mortality at 50 ppm was 20%.

Q: And the mortality at 250 ppm ([2]; Table 4b)?
A: The mortality at 250 ppm was 6.7%.

Q: What about the mortality at 50 ppm ([2]; Table 4c) of the same molecule?
A: Its mortality at 50 ppm is 6.7%.

Q: And the mortality at 250 ppm ([2]; Table 4c)?
A: Its mortality at 250 ppm is 33.3%.

Q: And the mortality at 50 ppm ([3]; 2 h, Table 2h)?
A: The mortality at 50 ppm was 2.4%.

Q: What about the mortality at 250 ppm ([3]; 2 h, Table 2h) of the same molecule?
A: Its mortality at 250 ppm is 7.6%.

Q: And the mortality at 50 ppm ([3]; 48 h, Table 2d)?
A: Its mortality at 50 ppm is 0%.

Q: What about the mortality at 250 ppm ([3]; 48 h, Table 2d) of the same molecule?
A: The mortality at 250 ppm was 1.3%.

Q: And the mortality at 50 ppm ([3]; Table 2a)?
A: The mortality at 50 ppm was 0%.

Q: What about the mortality at 250 ppm ([3]; Table 2a) of the same molecule?
A: The mortality at 250 ppm was 18.8%.

Q: What about the mortality at 50 ppm ([3]; Table 2b) of the same molecule?
A: Its mortality at 50 ppm is 80%.

Q: And the mortality at 250 ppm ([3]; Table 2b)?
A: The mortality at 250 ppm was 0%.

Q: What about the mortality at 50 ppm ([3]; Table 2c) of the same molecule?
A: Its mortality at 50 ppm is 0%.

Q: What about the mortality at 250 ppm ([3]; Table 2c) of the same molecule?
A: The mortality at 250 ppm was 3.1%.

Q: What about the mortality at 50 ppm ([3]; Table 2e) of the same molecule?
A: The mortality at 50 ppm was 0%.

Q: And the mortality at 250 ppm ([3]; Table 2e)?
A: Its mortality at 250 ppm is 2.2%.

Q: What about the mortality at 50 ppm ([3]; Table 2f) of the same molecule?
A: The mortality at 50 ppm was 9.3%.

Q: What about the mortality at 250 ppm ([3]; Table 2f) of the same molecule?
A: The mortality at 250 ppm was 0%.

Q: And the mortality at 50 ppm ([3]; Table 2g)?
A: The mortality at 50 ppm was 2.6%.

Q: What about the mortality at 250 ppm ([3]; Table 2g) of the same molecule?
A: The mortality at 250 ppm was 2.1%.

Q: What about the “Plant Protection (obs)” value ([4]; Table 6a, 50 ppm) of the same molecule?
A: The value was 0.0.

Q: What about the “Plant Protection (obs)” value ([4]; Table 6a, 250 ppm) of the same molecule?
A: Its value is 0.0.

Q: And the “Plant Protection (obs)” value ([4]; Table 6b, 50 ppm)?
A: Its value is 0.0.

Q: What about the “Plant Protection (obs)” value ([4]; Table 6b, 250 ppm) of the same molecule?
A: Its value is 0.0.
